These results are taken from ChEMBL document CHEMBL1201862, “PubChem BioAssay data set” (2004).

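Briefly, cells in 96-well plates were exposed to five compound concentrations for 48 h, and endpoints were estimated by linear interpolation. GI50 is the concentration that inhibits growth by half.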 Calls of active or inactive are those of the source. Rule as the data show it: active = GI50 up to about 1.1 µM and inactive = higher.

Among the test systems are SW-620; NCI-H226; K562; SK-MEL-28; HCT-116; HCC 2998; MDA-MB-231; OVCAR-8; 786-0; MOLT-4; SK-MEL-5; SK-OV-3; ACHN; SN12C; HT-29; HOP-62; NCI-H460.
Test in all cases: growth of human tumour cells (NCI), 48 h

Regarding `COc1cc(CNC(=O)CCCCCCCC/C=C/Br)ccc1O`, the GI50 with SW-620, in the assay with NCI-H226, in the assay with K562, in the assay on SK-MEL-28, in the assay on HCT-116 and in the assay on HCC 2998 was > 10 µM (inactive) each time. Moreover, the GI50 with MDA-MB-231, with OVCAR-8, in the assay on 786-0, with MOLT-4, in the assay with SK-MEL-5 and in the assay with SK-OV-3 was > 10 µM (inactive) throughout. Further, the GI50 with ACHN, with SN12C, in the assay with HT-29, in the assay with HOP-62 and in the assay with NCI-H460 was > 10 µM (inactive) each time.
Regarding `C/C(=N/NC(=S)Nc1ccccc1C)c1ccccn1`, the GI50 is < 0.0177 µM (active) with SW-620; 0.075 µM (active) in the assay with NCI-H226; < 0.0145 µM (active) in the assay on K562; 1.08 µM (active) in the assay on SK-MEL-28; < 0.0152 µM (active) with HCT-116; 6.27 µM (inactive) in the assay with HCC 2998. Also, the GI50 was < 0.0216 µM (active) with MDA-MB-231; 0.107 µM (active) in the assay with OVCAR-8; 0.0627 µM (active) with 786-0; 0.0175 µM (active) in the assay on MOLT-4; 0.0766 µM (active) with SK-MEL-5; 0.052 µM (active) with SK-OV-3. Also, the GI50 was 0.0562 µM (active) with ACHN; 0.269 µM (active) with SN12C; 0.0726 µM (active) in the assay on HT-29; 0.0299 µM (active) with HOP-62; 0.0818 µM (active) in the assay with NCI-H460.
Take `O=c1c2cn[nH]c2nc2scc(-c3ccc(Cl)cc3)n12`: the GI50 in the assay on SW-620, in the assay with NCI-H226, with K562, in the assay on SK-MEL-28, in the assay with HCT-116 and in the assay with HCC 2998 was > 100 µM (inactive) each time. In addition, the GI50 in the assay on MDA-MB-231, in the assay with OVCAR-8, in the assay on 786-0, in the assay on MOLT-4, in the assay on SK-MEL-5 and with SK-OV-3 was > 100 µM (inactive) each time. Further, the GI50 in the assay with ACHN, in the assay on SN12C, in the assay on HT-29, with HOP-62 and in the assay with NCI-H460 was > 100 µM (inactive) throughout.
Take `CCCCCCCCCc1cc(O)c(O)cc1CCCCCCCCC`: the GI50 in the assay on SW-620, in the assay on NCI-H226, in the assay with K562, in the assay with SK-MEL-28, with HCT-116 and in the assay with HCC 2998 was > 10 µM (inactive) each time. Also, the GI50 in the assay with MDA-MB-231, in the assay on OVCAR-8, with 786-0, in the assay on MOLT-4, with SK-MEL-5 and in the assay with SK-OV-3 was > 10 µM (inactive) in each case. Besides, the GI50 in the assay with ACHN, in the assay on SN12C, with HT-29, with HOP-62 and in the assay on NCI-H460 was > 10 µM (inactive) each time.
With `COc1ccc2c(c1)CCCN2S(=O)(=O)c1ccccc1[N+](=O)[O-]`, the GI50 in the assay on SW-620 is 17.4 µM (inactive); in the assay on NCI-H226 it was 44.2 µM (inactive); in the assay on K562, 5.89 µM (inactive); with SK-MEL-28 it was 68.5 µM (inactive); in the assay with HCT-116 it was 24.2 µM (inactive); with HCC 2998, 35.6 µM (inactive). Also, the GI50 in the assay with MDA-MB-231 was 53.5 µM (inactive); in the assay on OVCAR-8, 53.7 µM (inactive); in the assay with 786-0 it was 58.5 µM (inactive); in the assay with MOLT-4 it was 14.4 µM (inactive); with SK-MEL-5, 41.8 µM (inactive); with SK-OV-3, 24 µM (inactive). The GI50 was 41.1 µM (inactive) in the assay on ACHN; 65.6 µM (inactive) with SN12C; 21.4 µM (inactive) in the assay on HT-29; 47.5 µM (inactive) in the assay on HOP-62; 26 µM (inactive) in the assay on NCI-H460.
Take `CCOC(=O)c1nc2ccccc2nc1Nc1ccc(F)cc1`: the GI50 in the assay on SW-620 is > 100 µM (inactive); in the assay on NCI-H226 it was 17.9 µM (inactive); in the assay with K562, > 100 µM (inactive); in the assay with SK-MEL-28, > 100 µM (inactive); in the assay on HCT-116, 20.3 µM (inactive); in the assay on HCC 2998, > 100 µM (inactive). Further, the GI50 was 8.13 µM (inactive) in the assay on MDA-MB-231; 11.5 µM (inactive) in the assay with OVCAR-8; 17.9 µM (inactive) in the assay with 786-0; > 100 µM (inactive) in the assay with MOLT-4; > 100 µM (inactive) in the assay on SK-MEL-5; 11.7 µM (inactive) with SK-OV-3. The GI50 in the assay with ACHN was 27.5 µM (inactive); in the assay with SN12C, 40.6 µM (inactive); with HT-29, > 100 µM (inactive); in the assay on HOP-62, 15.8 µM (inactive); in the assay with NCI-H460, 51.6 µM (inactive).
As for `COC(=O)Nc1nc(=O)c2cc(OC)c(OC)cc2[nH]1`, the GI50 was 3.85 µM (inactive) in the assay with SW-620; 37.6 µM (inactive) with NCI-H226; 3.59 µM (inactive) with K562; 63 µM (inactive) in the assay on SK-MEL-28; 5.2 µM (inactive) with HCT-116; 71.3 µM (inactive) with HCC 2998. For the same compound, the GI50 with MDA-MB-231 is 81.3 µM (inactive); with OVCAR-8, 47.6 µM (inactive); in the assay with 786-0, 45.5 µM (inactive); in the assay on MOLT-4 it was 6.84 µM (inactive); in the assay with SK-MEL-5, 6.35 µM (inactive); in the assay on SK-OV-3, 42.1 µM (inactive). In addition, the GI50 with ACHN is > 100 µM (inactive); in the assay with SN12C, 64.9 µM (inactive); in the assay on HT-29, 6.68 µM (inactive); in the assay with HOP-62, 44.6 µM (inactive); with NCI-H460, 9.33 µM (inactive).
For `N#C[BH2-][n+]1cn(C2CC(OP(=O)(O)OCC3OC(n4ccc(N)nc4=O)CC3O)C(CO)O2)c2nc(N)[nH]c(=O)c21` (stereo not drawn), the GI50 in the assay on SW-620, with NCI-H226, with K562, in the assay with SK-MEL-28, in the assay on HCT-116 and with HCC 2998 was > 100 µM (inactive) in each case. The GI50 in the assay on MDA-MB-231, with OVCAR-8, in the assay with 786-0, in the assay on MOLT-4, in the assay on SK-MEL-5 and in the assay on SK-OV-3 was > 100 µM (inactive) each time. In addition, the GI50 with ACHN, in the assay with SN12C, in the assay on HT-29, in the assay with HOP-62 and in the assay on NCI-H460 was > 100 µM (inactive) in each case.
On to `Cc1ccnc2nc(-c3ccc(F)cc3)cc(O)c12`, for which the GI50 is 33.7 µM (inactive) with SW-620; 64 µM (inactive) in the assay on NCI-H226; 5.55 µM (inactive) in the assay on K562; 77.3 µM (inactive) in the assay with SK-MEL-28; 16.9 µM (inactive) with HCT-116; 60 µM (inactive) with HCC 2998. Moreover, the GI50 is > 80.7 µM (inactive) in the assay on MDA-MB-231; > 100 µM (inactive) with OVCAR-8; 42.2 µM (inactive) with 786-0; > 71.4 µM (inactive) in the assay on MOLT-4; 22.6 µM (inactive) with SK-MEL-5; > 86.9 µM (inactive) in the assay with SK-OV-3. In addition, the GI50 in the assay on ACHN is 68.1 µM (inactive); in the assay on SN12C, > 100 µM (inactive); in the assay with HT-29 it was 18.7 µM (inactive); in the assay on HOP-62 it was 68.7 µM (inactive); in the assay on NCI-H460, 13.2 µM (inactive).
